# Tests used:
# [1] = system: phospho-c-RAF and phospho-ERK1/2 in MDA-MB-231 cells; experiment: Western blot of RAS-MAPK pathway, MDA-MB-231; type: cell-based, human; conditions: MDA-MB-231, 10-250 μM RBP 6 h then 50 ng/ml EGF 10 min
# Experimental: Protein expression was confirmed via Western blot analysis. Briefly, 9 × 10^5 cells were cultured in 100-mm-diameter dishes. When they reached 90% confluence, the cells were starved for 18 h in serum-free medium. […] At the end of the culture period, the cells were lysed for 20 min in cold lysis buffer on ice. Protein concentration was measured using bicinchoninic acid protein assays (Thermo Fisher Scientific, MA, USA). Equal aliquots of protein (40 μg) were boiled for 7 min in 5× sample buffer and separated by 10% SDS–PAGE. Proteins were transferred onto nitrocellulose membranes, followed by washing with Tris-buffered saline (TBS) containing 0.1% Tween 20 (TBST). The membranes were then blocked for 60 min at room temperature with 5% skim milk in TBST. Following the washing procedure, the membranes were incubated with primary antibodies (RAS, phospho-ERK1/2, ERK1/2, phospho-RAF proto-oncogene serine/threonine-protein kinase [phospho-c-RAF; S338], c-RAF [Cell Signaling Technology, Beverly, MA, USA], and GAPDH [Santa Cruz Biotechnology, Inc., Santa Cruz, CA, USA]) diluted in TBST containing 5% skim milk at 4 °C for 18 h. […] The membranes were subsequently washed 3 more times, and protein bands were detected using chemiluminescence reagents (West Pico PLUS, Thermo Fisher Scientific, USA).
# [2] = system: MDA-MB-231 cell-derived tumors; type: in vivo
# Experimental: Fertilized white leghorn eggs, sourced from the Société Française de Production Avicole (St. Brieuc, France), were incubated for 9 d at 37.5 °C with 50% relative humidity. On embryonic day 9 (E9), a small hole was drilled into the air sac to lower the chorioallantoic membrane (CAM), and a 1-cm^2 window was created in the eggshell above the CAM. The MDA-MB-231 cell line was cultivated in DMEM supplemented with 10% FBS (and 1% penicillin/streptomycin). Cells (at 90% confluency, passages 30 to 32) were detached from culture plates with trypsin/EDTA, rinsed with complete medium, and suspended in graft medium. An inoculum of 1 × 10^6 cells was added onto the CAM of each egg. The eggs were randomly assigned to groups. On day 10 (E10), tumors were detectable. They were then treated every 2 d for 9 d (E11, E13, E15, and E17); specifically, 100 μl of the vehicle or 100 μl of the peptide (10 mg/kg) was added dropwise to the tumor. Angiogenesis was estimated by calculating the number of vessels on the CAM that irrigated tumors. Because tumors generated from MDA-MB-231 cells are hemorrhagic, images were obtained at E16 (2 d before collection to ensure that all vessels in the CAM were visible). On day 18 (E18), the upper portion of the CAM containing the tumor was removed, washed in PBS, and then directly transferred to paraformaldehyde (for 48 h for fixation). The tumors were then carefully removed from normal CAM tissue and weighed. The extent of treatment toxicity was evaluated according to the number of dead embryos after 9 d of treatment and observation of visible macroscopic abnormalities at the end point.
# In parallel, a 1-cm^2 portion of the lower CAM was collected to evaluate the number of metastatic cells. Genomic DNA was extracted from the CAM and analyzed for human Alu sequences via quantitative polymerase chain reaction (qPCR) with specific primers. Calculation of the Cq for each sample, the mean Cq, and the number of metastases for each group were performed with the Bio-Rad CFX Maestro software (Bio-Rad, Hercules, CA, USA). According to the real-time PCR data markup language data standard (http://www.rdml.org), Cq is defined as the cycle at which the amplification curve […] (fractional PCR cycles). The Cq value is obtained in the exponential phase, where the qPCR curve is linear. This is the basic result of qPCR: lower Cq values indicate higher initial copy numbers of the target gene. When the PCR efficiency is 100%, a difference of 1 cycle between 2 reactions means that there are 2 times more copies (genes) in the reaction with the lower Cq value than in the reaction with the higher Cq value. One-way analysis of variance (ANOVA) with post hoc tests was performed on the data.
# On day 18 (E18), 5 tumor samples per group (different from the tumor samples used for tumor weight determination) were collected to evaluate the infiltration of immune cells. Each tumor sample was cut to a small size (<0.5 cm^3) and kept in 5 volumes of RNAlater solution at 4 °C. The extracted RNA was analyzed via reverse transcription qPCR with specific primers for chicken CD3 and CD4 sequences. The Bio-Rad CFX Maestro software was used to calculate the Cq values for each sample, determine the mean Cq, and quantify the relative expression of immune cell markers in each group.
# Three tumors per group were harvested and fixed in 4% formaldehyde, washed, and then stored in 70% ethanol until needed for experiments. The tumors were cut to a standard size and placed in an embedding cassette. The paraffin blocks were sectioned at a thickness of approximately 3 to 5 μm. The cells were placed on a glass slide, stained with hematoxylin and eosin (H&E) and Ki-67, and covered in an automated machine. Pictures were taken via a microscope (Olympus BX60, serial no. 7D04032, Shinjuku, Japan) at a magnification of ×4 and a microscope camera (Olympus DP73, serial no. OH05504, Shinjuku, Japan). […]
# MDA-MB-231 cells = experiment: Scratch wound migration assay; type: cell-based, human; conditions: MDA-MB-231, serum-starved monolayer, 6-72 h
# Experimental: To assess MDA-MB-231 cell migration, 2 methods were employed: a Transwell migration assay and a scratch assay. For the Transwell migration assay, 24-well Transwell plates (8-μm pore size; Costar, Corning Incorporated, Corning, NY, USA) were used to evaluate the invasive potential of the cells. […] Following a 6-h incubation period, nonmigratory cells were carefully removed from the upper surface of the membrane using a PBS-soaked cotton swab. The cells that successfully migrated through the membrane were fixed in methanol for 10 min, and Giemsa staining was used to visualize them. Images were captured using an Olympus DP72 camera at ×100 magnification, and the number of migrated cells in the treated samples was compared with that in the control samples. For the scratch assay, MDA-MB-231 cells (1 × 10^6 cells) were cultured in 6-well plates until they reached confluence. The cells were rinsed with PBS and incubated overnight in serum-free medium. A sterile 200-μl plastic pipette tip was used to create a linear scratch in the center of the monolayer. […] Images were taken immediately after scratching and again after 6, 24, 48, and 72 h of incubation using an Olympus CKX41 inverted microscope at ×20 magnification to evaluate the distance the cells migrated from the wound edge.
# [3] = chicken egg CAM tumors, 10 mg/kg, E18, 5 tumors per group, normalized to GAPDH
smiles,measurement,setting,value
C[C@@H](O)[C@H](NC(=O)[C@H](CO)NC(=O)[C@H](CS)NC(=O)[C@H](CCCCN)NC(=O)CN)C(=O)N[C@@H](CCCNC(=N)N)C(=O)NCC(=O)N[C@@H](CCCNC(=N)N)C(=O)N[C@@H](CCCCN)C(=O)N[C@@H](CS)C(=O)N[C@@H](CS)C(=O)N[C@@H](CCCNC(=N)N)C(=O)N[C@@H](CCCNC(=N)N)C(=O)N[C@@H](CCCCN)C(=O)N[C@@H](CCCCN)C(N)=O [RBP],activation of RAF (phospho-c-RAF),[1],effectively inhibited
same,phosphorylation of ERK1/2,"[1]; p-ERK/ERK, n = 3",effectively inhibited
same,Ki-67 expression in tumor sections (IHC),"[2]; chicken egg CAM tumors, 10 mg/kg",reduced Ki-67 expression
same,"infiltration of CD3-positive immune cells in tumors (chicken CD3 mRNA, RT-qPCR)",[2]; [3],increased infiltration
same,"infiltration of CD4-positive immune cells in tumors (chicken CD4 mRNA, RT-qPCR)",[2]; [3],increased infiltration
same,formation of microvessels,"[2]; chicken egg CAM, 10 mg/kg, E16",significantly suppressed
same,metastasis of MDA-MB-231 cells to lower CAM (human Alu qPCR),"[2]; chicken egg CAM, 10 mg/kg, E18, P < 0.01 vs Neg Ctrl",significantly inhibited
same,number of vessels reaching and feeding the tumors,"[2]; chicken egg CAM, 10 mg/kg, images at E16, P < 0.05 vs Neg Ctrl",significantly reduced
same,average tumor weight,"[2]; chicken egg CAM, MDA-MB-231, 10 mg/kg at E11, E13, E15, E17, collected E18, mean ± SD, P < 0.01 vs Neg Ctrl (54.40 ± 12.22 mg)",22.10 ± 5.86 mg
same,embryo mortality compared to negative control,"[2]; in vivo, 10 mg/kg",no statistically significant difference
same,tumor cell migration in scratch assay,MDA-MB-231 cells,significantly inhibited

# — article PMC11997307, “Rat Sarcoma (RAS)-Protein-Targeting Synthetic Cell-Penetrating Peptide as an Anticancer Biomaterial” (Biomaterials Research, 2025)
